Article PMC4714869 (Steroids, 2015)
“Also recorded” adds a separate entry of the source.

What was measured:
[1] = molecular target: T1, human ERα (Homo sapiens, UniProt P03372); assay: Competitive radiometric binding assay with [3H]-estradiol tracer, ERα; conditions: RBA of estradiol set to 100%; 2 nM [3H]-estradiol, 18–24 h at 0 °C
T1 sequence (P03372 1-595): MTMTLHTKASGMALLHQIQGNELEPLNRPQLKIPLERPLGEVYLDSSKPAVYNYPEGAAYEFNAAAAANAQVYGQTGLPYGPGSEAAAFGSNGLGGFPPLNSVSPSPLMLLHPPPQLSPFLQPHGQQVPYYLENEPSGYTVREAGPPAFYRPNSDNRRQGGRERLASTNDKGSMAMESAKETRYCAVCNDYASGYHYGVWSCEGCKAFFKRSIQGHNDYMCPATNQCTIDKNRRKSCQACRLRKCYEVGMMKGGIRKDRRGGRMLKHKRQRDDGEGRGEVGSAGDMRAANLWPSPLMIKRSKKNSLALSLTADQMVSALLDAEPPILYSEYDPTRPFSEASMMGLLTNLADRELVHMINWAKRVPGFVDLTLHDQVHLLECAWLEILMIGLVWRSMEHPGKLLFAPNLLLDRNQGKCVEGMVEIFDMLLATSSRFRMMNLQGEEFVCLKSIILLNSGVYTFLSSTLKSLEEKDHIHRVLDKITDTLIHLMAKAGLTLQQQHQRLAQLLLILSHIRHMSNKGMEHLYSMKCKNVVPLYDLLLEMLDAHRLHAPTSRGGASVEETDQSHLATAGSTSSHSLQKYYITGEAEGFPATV

[2] = test system: PgR and GREB1 gene expression in MCF-7 cells; assay: Estrogen-responsive gene expression; assay type: cell-based; conditions: for PgR and GREB1 RNA level (gene stimulation): MCF-7, 10^−8 M E2, 10^−6 M Liq or Iso-Liq, 3×10^−6 M L1–L7, 24 h
[3] = test system: MCF-7 cells; assay: Proliferation of MCF-7 cells; assay type: cell-based; conditions: 6 days; two highest concentrations 10^−6 and 3×10^−6 M
[4] = molecular target: human ERβ (Homo sapiens, UniProt Q92731); conditions: for RBA (mean ± SD) ERβ: RBA of estradiol set to 100%, 2 nM [3H]-estradiol, 18–24 h at 0 °C
[5] = test system: Ki67 gene expression in MCF-7 cells; assay: Ki67 gene expression in MCF-7 cells by qPCR; conditions: for suppression of E2-elicited increase in Ki67 mRNA: 3×10^−6 M component with 10^−9 M E2, 24 h; for Ki67 RNA expression (stimulation): 10^−8 M E2, 10^−6 M Liq or Iso-Liq, 3×10^−6 M L1–L7, 24 h
[6] = test system: E2-stimulated PgR and GREB1 gene expression in MCF-7 cells; assay: Inhibition of E2-stimulated PgR and GREB1 gene expression in MCF-7 cells; conditions: 3×10^−6 M component with 10^−9 M E2, 24 h
[7] = test system: proteinase inhibitor 9 (PI9) expression in HepG2 + ERα cells; assay: PI9 gene expression in HepG2 cells stably expressing ERα; conditions: 10^−8 M EE2; 3×10^−6 M Liq, Iso-Liq, L1–L7; 24 h

Chain of human ERβ (Q92731 whole entry): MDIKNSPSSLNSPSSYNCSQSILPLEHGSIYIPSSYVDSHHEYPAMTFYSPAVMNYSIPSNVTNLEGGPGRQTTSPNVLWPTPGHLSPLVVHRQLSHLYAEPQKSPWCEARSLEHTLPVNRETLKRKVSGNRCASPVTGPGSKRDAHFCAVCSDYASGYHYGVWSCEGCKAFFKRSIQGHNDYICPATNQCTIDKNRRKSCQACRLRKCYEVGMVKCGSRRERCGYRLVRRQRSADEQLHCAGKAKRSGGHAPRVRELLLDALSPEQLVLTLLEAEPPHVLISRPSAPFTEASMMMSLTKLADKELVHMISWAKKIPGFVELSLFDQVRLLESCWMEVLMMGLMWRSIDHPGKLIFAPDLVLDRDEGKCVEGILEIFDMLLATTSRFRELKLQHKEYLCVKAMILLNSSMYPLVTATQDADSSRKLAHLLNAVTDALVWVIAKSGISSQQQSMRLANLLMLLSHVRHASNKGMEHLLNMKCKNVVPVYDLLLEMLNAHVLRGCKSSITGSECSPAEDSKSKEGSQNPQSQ

SMILES | RBA (mean ± SD) ERα [1] [%] | PgR and GREB1 RNA level (gene stimulation) [2] | stimulation of MCF-7 cell proliferation [3] | ERβ/ERα ratio of RBA [4] | RBA (mean ± SD) ERβ [4] [%] | suppression of E2-elicited increase in Ki67 mRNA [5] | Ki67 RNA expression (stimulation) [5] | block of E2-stimulated GREB1 expression [6] | block of E2-stimulated PgR expression [6] | PI9 expression in HepG2 + ERα cells [7] | preference for ERβ over ERα ([4]; from RBA values) | potency in stimulating estrogen-regulated genes, fold less than E2 ([2]; efficacy nearly equivalent to E2) | effect of antiestrogen cotreatment on increases in Ki67 RNA expression ([5]; 10^−6 M ICI 182,780, 24 h)
COc1c(CC=C(C)C)c(O)cc(O)c1-c1coc2cc(O)ccc2c1=O [L7, Glicoricone] | 0.008 ± 0.001 | little or no change in gene expression; also recorded: did not stimulate expression of PgR or GREB1 | inactive in eliciting elevation of cell proliferation | 2.4 | 0.019 ± 0.004 | partially suppressed | did not stimulate Ki67 expression | only partially; also recorded: most effective antagonist of GREB1 stimulation by E2 | almost fully |  |  |  | 
COc1c(CC=C(C)C)c(O)cc2oc(=O)c(-c3ccc(O)cc3O)cc12 [L6, Glycycoumarin] | 0.017 ± 0.001 | effective in increasing PgR and GREB1 expression |  | 2.4 | 0.040 ± 0.001 |  | all compounds except for L1, L5, L6 and L7 increased Ki67 RNA expression |  |  |  |  |  | 
C#C[C@]1(O)CC[C@H]2[C@@H]3CCc4cc(O)ccc4[C@H]3CC[C@@]21C [EE2, ethinyl estradiol] |  |  |  |  |  |  |  |  |  | stimulated expression |  |  | 
CC1(C)C=Cc2c(ccc3c2OC[C@@H](c2ccc(O)cc2O)C3)O1 [L1, Glabridin] | 0.075 ± 0.015 | little or no change in gene expression; also recorded: did not stimulate expression of PgR or GREB1 | inactive in eliciting elevation of cell proliferation | 1.2 | 0.091 ± 0.001 | not effective in suppressing | did not stimulate Ki67 gene expression | only partially | almost fully |  |  |  | 
C[C@]12CC[C@@H]3c4ccc(O)cc4CC[C@H]3[C@@H]1CC[C@@H]2O [E2, estradiol, reference compound] |  | markedly increased |  |  |  |  |  |  |  |  |  |  | 
O=C1C[C@@H](c2ccc(O)cc2)Oc2cc(O)ccc21 [Liq, Liquiritigenin, reference compound] | <0.001 | markedly increased | stimulated cell proliferation quite strongly |  |  |  |  |  |  | stimulated expression |  |  | 
COc1c(CC=C(C)C)c(O)cc2c1C[C@H](c1ccc(O)cc1O)CO2 [L5, Glyasperin C] | 0.010 ± 0.001 | little or no change in gene expression; also recorded: did not stimulate expression of PgR or GREB1 | inactive in eliciting elevation of cell proliferation | 11.1 | 0.111 ± 0.004 | not effective in suppressing | did not stimulate Ki67 gene expression | only partially | almost fully |  | greater than 10 fold |  | 
COc1ccc(C2COc3cc(O)ccc3C2)c(O)c1 (centres unmarked) [L4, Vestitol] | 0.062 ± 0.008 | effective in increasing PgR and GREB1 expression | stimulated cell proliferation quite strongly | 0.6 | 0.039 ± 0.011 |  |  |  |  |  |  | ca. 10,000 fold | 
C[C@]12CC[C@@H]3c4ccc(O)cc4C[C@@H](CCCCCCCCC[S+]([O-])CCCC(F)(F)C(F)(F)F)[C@H]3[C@@H]1CC[C@@H]2O (some centres unmarked) [ICI 182,780, reference compound] |  |  |  |  |  |  |  |  |  |  |  |  | eliminated
O=C(/C=C/c1ccc(O)cc1)c1ccc(O)cc1O [Iso-Liq, Iso-liquiritigenin, reference compound] |  | markedly increased | stimulated cell proliferation quite strongly |  |  |  |  |  |  | stimulated expression |  |  | 
COc1ccc(-c2coc3cc(O)ccc3c2=O)cc1O [L2, Calycosin] | 0.010 ± 0.004 | effective in increasing PgR and GREB1 expression |  | 2.7 | 0.027 ± 0.004 |  |  |  |  |  |  |  | 
